Data: US20090197279A1, “MICROTUBULE SYNTHESIS AS A BIOMARKER” (KINEMED, INC., priority 2005, published 2009)
“Also recorded” adds a separate entry of the source.

Tests used:
[1] = system: hippocampal tubulin dimers and microtubule subsets; assay: 2H label incorporation into hippocampal tubulin dimers and microtubule subsets during CFC (GC/MS); format: in vivo, mouse; settings: conditioned mice, hippocampus
Source text: FIG. 10 depicts microtubule/tubulin exchange during hippocampus-dependent contextual memory. (A) Protocol for measurement of microtubule/tubulin exchange during contextual fear conditioning (CFC). Tubulin dimers and microtubules subsets were labeled to plateau through continuous ^2H2O labeling, starting one day before CFC training. Labeling was continued throughout CFC training (Day 2) and the contextual conditioning test until mice were euthanized (Day 3). Vehicle or nocodazole treated-mice were injected 4 hours before CFC training, consisting of three pairings of conditioned and unconditioned stimuli inside an observation chamber, as described in Example 7 below. (B) CFC experiments were conducted in groups of naïve, vehicle- (50% cyclodextrin) and nocodazole-treated (0.2 mg/kg) mice (mean±SD, n=8 per each group), respectively. […] (C-E) ^2H label incorporation into hippocampal tubulin dimers and microtubule subsets was compared at sacrifice in the indicated experimental groups. Microtubule subpopulations were fractionated as described below, and the percentage of newly synthesized tubulin was quantified by GC/MS (mean±SD, n=3). (C) and (D) In vehicle-CFC trained mice, the increased freezing response corresponded with an increase in ^2H labeling of MAP2- and CS-associated MTs, compared to naïve control animals (§p<0.01 and §§p<0.05; two-way ANOVA). […] In (C-E), bars represent % new tubulin (mean±SD, n=3).
Tubulin was purified using minor modifications of protocols described previously (Fanara, P., Oback, B., Ashman, K., Podtelejnikov, A., Brandt, R. Identification of MINUS, a small polypeptide that functions as a microtubule nucleation suppressor. EMBO J. 18, 565-577 (1999); Fanara, P. et al. In vivo measurement of microtubule dynamics using stable isotope labeling with heavy water. Effect of taxanes. J. Biol. Chem. 279, 49940-49947 (2004). Briefly, cultured neurons were gently scraped off culture plates, washed in phosphate-buffered saline (PBS), and homogenized in microtubule-stabilizing buffer. For purification ex vivo, mice were anesthetized with isoflurane and euthanized by cervical dislocation. Brains were rapidly removed and washed in microtubule-stabilizing buffer (MSB); hippocampi were dissected and gently homogenized in MSB. […] The relative abundance of tubulin in each preparation (Tubulin dimers and TAU5-bound, MAP2-bound, and unbound microtubule fractions) was quantified by Western blot, and tubulin from these fractions was further purified by ion exchange and size exclusion chromatography, as previously described (Fanara, P. et al. In vivo measurement of microtubule dynamics using stable isotope labeling with heavy water. Effect of taxanes. J. Biol. Chem. 279, 49940-49947 (2004)). […]

[2] = system: hippocampal tubulin dimers and tau-associated, tau-nonassociated (MAP2/STOP) and cold-stable microtubules; assay: 2H label incorporation into hippocampal tubulin dimers and microtubule fractions after ICVC infusion (2H2O labeling, GC/MS); format: in vivo, mouse; settings: for label incorporation into new MAP2/STOP-MTs: vs water
Procedure: In (A) and (B), mice received ICVC infusions of 6 μl water alone or containing 0.48 nmol glutamate (80 μM in the infusate), or glutamate plus 0.66 pmol Rp-cAMP (110 nM in the infusate). Animals were then labeled with ^2H2O for 8 hours (A) or 24 hours (B). At sacrifice, the hippocampal post-nuclear supernatant was fractionated as show in FIG. 5A; a separate aliquot was used for isolation of cold stable (CS) MTs (FIG. 5D). Glutamate injection stimulated label incorporation into new MAP2/STOP-MTs at 8 and 24 hours, and CS MTs at 24 hours; both were blocked by Rp-cAMP. In order to correct the effects of pharmacologic intervention on MT dynamics for the confounding changes in tubulin synthesis, the numbers above each bar express ^2H label incorporation into MT as a percentage of ^2H labeling in the corresponding tubulin dimer fractions. (C) Dose dependence of glutamate effects. ^2H2O labeling was initiated at time zero, 6 μl ICVC infusions with the indicated concentrations of glutamate were performed at 24 hours, and labeling was continued until sacrifice at 48 hours (24 hours post glutamate infusion). Hippocampal MTs were fractionated into tau-associated, MAP2-associated, and non-associated (STOP-associated) MT fractions, as in FIG. 5A. In all experiments, bars represent % new tubulin (mean±SD, n=3).
Tubulin was purified using minor modifications of protocols described previously (Fanara, P., Oback, B., Ashman, K., Podtelejnikov, A., Brandt, R. Identification of MINUS, a small polypeptide that functions as a microtubule nucleation suppressor. EMBO J. 18, 565-577 (1999); Fanara, P. et al. In vivo measurement of microtubule dynamics using stable isotope labeling with heavy water. Effect of taxanes. J. Biol. Chem. 279, 49940-49947 (2004). Briefly, cultured neurons were gently scraped off culture plates, washed in phosphate-buffered saline (PBS), and homogenized in microtubule-stabilizing buffer. For purification ex vivo, mice were anesthetized with isoflurane and euthanized by cervical dislocation. Brains were rapidly removed and washed in microtubule-stabilizing buffer (MSB); hippocampi were dissected and gently homogenized in MSB. To separate cytosolic tubulin dimers from microtubule polymers, post-nuclear supernatants were centrifuged at 190,000×g at 20° C. for 35 min. The supernatant or non-microtubule fraction (containing the soluble dimeric tubulin) was separated from the pellet or microtubule fraction (containing polymeric tubulin), quick-frozen and stored at −20° C. Microtubule pellets were further fractionated by sequential immunoaffinity chromatography steps (FIG. 3). In order to isolate tau-associated microtubules, TAU5 antibody was covalently coupled to epoxy-activated Sepharose beads (Amersham Pharmacia Biotech) at a concentration of 0.25 mg/ml. Approximately 0.2 mg of the microtubule pellet was incubated with TAU-5 beads in 0.5 ml MSB for 1 hour at room temperature. Unbound material was removed, the beads were washed three times in 0.5 ml of MSB, and bound material was eluted in 0.5 ml MSB containing 1M NaCl. In some experiments, MAP2-associated microtubules were captured from the TAU5-unbound material by immunoaffinity chromatography on epoxy-activated Sepharose beads coupled to MAP2 antibody (0.5 mg antibody per ml beads) using the same protocol. The relative abundance of tubulin in each preparation (Tubulin dimers and TAU5-bound, MAP2-bound, and unbound microtubule fractions) was quantified by Western blot, and tubulin from these fractions was further purified by ion exchange and size exclusion chromatography, as previously described (Fanara, P. et al. In vivo measurement of microtubule dynamics using stable isotope labeling with heavy water. Effect of taxanes. J. Biol. Chem. 279, 49940-49947 (2004)). […]

[3] = dose-dependence experiment, 24 hours post stimulation

COC(=O)Nc1nc2ccc(C(=O)c3cccs3)cc2[nH]1 [nocodazole]
label incorporation into tau-associated microtubules ([1]; nocodazole 0.2 mg/kg vs basal levels in naïve and conditioned animals): reduced; also recorded: significant disassembly
2H incorporation into free tubulin dimers ([1]; nocodazole 0.2 mg/kg vs vehicle-treated controls): increase
label incorporation into MAP2-associated microtubules ([1]; nocodazole 0.2 mg/kg vs vehicle): reversed; also recorded: significant disassembly
reduction of label incorporation into CS microtubules ([1]; nocodazole 0.2 mg/kg): not statistically significant

N[C@@H](CCC(=O)[O-])C(=O)[O-].[K+].[K+] [glutamate, potassium L-glutamate]
label incorporation into new MAP2/STOP-MTs ([2]; 0.48 nmol glutamate ICVC, 2H2O labeling 8 hours): stimulated
label incorporation into new MAP2/STOP-MTs ([2]; 0.48 nmol glutamate ICVC, 2H2O labeling 24 hours): stimulated
fractional synthesis of tubulin dimers ([2]; 0.48 nmol glutamate ICVC, 8 and 24 hours labeling, vs controls): somewhat enhanced
tau-nonassociated microtubules exchanged with free tubulin ([2]; 0.48 nmol glutamate ICVC, 8 hours): ca. 80%
labeling of cold-stable (axonal shaft) microtubules ([2]; 0.48 nmol glutamate ICVC, 8 hours, vs controls): indistinguishable from controls
tau-nonassociated microtubules exchanged with free tubulin ([2]; 0.48 nmol glutamate ICVC, 24 hours): ca. 80%
cold-stable microtubules equilibrated with free tubulin ([2]; 0.48 nmol glutamate ICVC, 24 hours, MT label as percentage of tubulin dimer label): about 40%
label incorporation into cold stable (CS) MTs ([2]; 0.48 nmol glutamate ICVC, 24 hours, vs controls): increased
label incorporation into cold stable (CS) MTs ([2]; 0.48 nmol glutamate ICVC, 24 hours, vs controls, listed as Glutamate): stimulated
exchange of tau-associated microtubules with tubulin dimers ([2]; 8 hours after stimulation with glutamate): highly exchanged
dynamics of tau-associated microtubules ([2]; 24 hours after stimulation with glutamate, vs controls): less dynamic than controls
fractional tubulin synthesis ([2]; dose-dependence experiment: 2H2O started 24 hours before varying amounts of glutamate, sacrifice 24 hours post infusion): at most slight effects
decreased label incorporation in tau-associated microtubules [2, 3]: glutamate-dose dependent
increased tubulin incorporation into dendritic and axonal shaft microtubules [2, 3]: glutamate-dose dependent
